Assay [1] addresses T1, Ba/F3 cell lines stably expressing human FLT3-ITD-D835Y (Homo sapiens, UniProt P36888, D835Y, cells depend on it, form not given).
T1 construct: Ba/F3-FLT3-ITD-D835Y Relative IC50
T1 sequence (P36888 1-993 D835Y): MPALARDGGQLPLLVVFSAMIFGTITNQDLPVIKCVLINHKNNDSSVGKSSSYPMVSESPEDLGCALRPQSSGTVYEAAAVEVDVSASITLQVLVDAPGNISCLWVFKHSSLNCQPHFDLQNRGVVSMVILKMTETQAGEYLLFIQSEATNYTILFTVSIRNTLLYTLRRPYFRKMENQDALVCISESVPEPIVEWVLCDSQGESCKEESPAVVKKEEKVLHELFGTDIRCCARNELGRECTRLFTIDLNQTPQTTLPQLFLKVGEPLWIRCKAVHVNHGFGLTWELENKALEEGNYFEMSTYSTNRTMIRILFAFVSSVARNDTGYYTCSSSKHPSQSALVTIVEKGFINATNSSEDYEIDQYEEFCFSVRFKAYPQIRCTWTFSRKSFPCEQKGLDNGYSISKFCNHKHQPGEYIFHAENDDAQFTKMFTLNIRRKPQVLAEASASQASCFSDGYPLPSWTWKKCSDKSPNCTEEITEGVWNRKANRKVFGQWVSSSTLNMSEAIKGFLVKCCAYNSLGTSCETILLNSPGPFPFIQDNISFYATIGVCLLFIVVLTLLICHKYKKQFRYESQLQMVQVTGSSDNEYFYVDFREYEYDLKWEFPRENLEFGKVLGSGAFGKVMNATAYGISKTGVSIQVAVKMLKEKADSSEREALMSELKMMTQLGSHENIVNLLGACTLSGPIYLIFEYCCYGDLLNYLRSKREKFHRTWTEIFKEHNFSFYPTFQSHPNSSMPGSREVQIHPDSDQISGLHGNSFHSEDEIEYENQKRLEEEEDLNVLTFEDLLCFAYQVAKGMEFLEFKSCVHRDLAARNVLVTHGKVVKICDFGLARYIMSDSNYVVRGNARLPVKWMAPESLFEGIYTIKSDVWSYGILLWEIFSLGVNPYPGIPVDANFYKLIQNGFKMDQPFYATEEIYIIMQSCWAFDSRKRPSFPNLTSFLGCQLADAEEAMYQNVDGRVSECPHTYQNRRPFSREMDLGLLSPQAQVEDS
As to the kind of experiment: FLT3 mutant assay, cell viability, Ba/F3-FLT3-ITD-D835Y. The assay is classed as cell-based, mouse. Conditions: IC50 (3 days), CellTiter-Glo; read-out: Ba/F3-FLT3-ITD-D835Y Relative IC50. As to the method: (§1) Activity of compounds on FLT3 activating mutations were assessed using Ba/F3 cell lines (mouse pro-B cell line) stably expressing human FLT3-ITD, FLT3-ITD-D835Y or FLT3-ITD-F691L. […] The supernatant collected were concentrated with PEG8000 and used to infect Ba/F3 cells at 1-5 MOI in serum-free media with polybrene. Infected Ba/F3 cells were selected in presence of puromycin, and surviving cells verified by sequencing and/or protein detection assay. Constitutive expression of the activating kinase transforms the Ba/F3 cells into IL-3-independent growth allowing them to be cultured in the absence of IL-3. […] For use in compound testing, cells in exponential growth phase were harvested, counted, and resuspended at the required cell density. Cell viability assays were performed in 96-well assay plates and 90 μL of cell suspension seeded per well. Serial dilutions of the test compounds and assay controls and were freshly prepared for the assay. Nine-point 3× serial dilutions were prepared in 100% DMSO (400× stock) and subsequently diluted in cell culture media to obtain 10× stocks. Ten microliters of the 10× stock serial dilutions were added to the appropriate wells (triplicate wells per condition) in the assay plate. […] Assay plates were incubated for 3 days in at 37° C. in a humidified incubator with 5% CO2.
(§2) Inhibition rate (IR) of the tested compounds was determined by the following formula: IR (%)=(1−(RLU compound−RLU blank)/(RLU control−RLU blank))*100%. The inhibitions of different dose of compound were calculated in Excel file, and the dose responses were analysed using GraphPad Prism to evaluate related parameters, such as Bottom, Top and IC50. For the IC50 analysis by GraphPad Prism, the equation below was used to fit curve: Y=Bottom+(Top−Bottom)/(1+10^((LogIC50−X)*HillSlope))
On the technique in general: ATP-based viability assays read luminescence as a measure of living cells.

Assay [2] deals with T2, Ba/F3 cell lines stably expressing human FLT3-ITD (Homo sapiens, UniProt P36888, cells depend on it, form not given).
T2 sequence (P36888 1-993): T1 sequence (P36888 1-993 D835Y) with Y835D
Briefly: FLT3 mutant assay, cell viability, Ba/F3-FLT3-ITD. The assay is classed as cell-based, mouse. Conditions: IC50 (3 days), CellTiter-Glo; read-out: Ba/F3-FLT3-ITD Relative IC50. As to the method:
as §1, §2

Where a chain is given by its changes, count along the chain named. Bounds are passed on as bounds.

Consider `CCc1nc(C(N)=O)c(Nc2ccc(N3CCC(N4CCN(C)CC4)CC3)c(OC)c2)nc1NC1CCOCC1` [Gilteritinib, gilteritinib, reference compound], for which, in assay [1], the GI50 lay in the range of 10 to 100 nM.
As to `CCc1nc(C(N)=O)c(Nc2cccc(CCNC(=O)CN(C)C(=O)/C=C/CN3CCC3)c2)nc1N(C)CC` [Compound 516A, (E)-3-((3-(2-(2-(4-(azetidin-1-yl)-N-methylbut-2-enamido)acetamido)ethyl)phenyl)amino)-6-ethyl-5-(ethyl(methyl)amino) pyrazine-2-carboxamide], the GI50 is 1 to 10 nM in assay [2] and 10 to 100 nM in assay [1].
`CCc1nc(C(N)=O)c(Nc2ccnc(CCNC(=O)[C@H](C)N(C)C(=O)/C=C/CN(C)C)c2)nc1C1CC1` [Compound 310, (S,E)-5-cyclopropyl-3-((2-(2-(2-(4-(dimethylamino)-N-methylbut-2-enamido)propanamido)ethyl)pyridin-4-yl)amino)-6-ethylpyrazine-2-carboxamide]: the GI50 was in the range of 1 to 10 nM in assay [2] and 10 to 100 nM in assay [1].
For `Cc1nc(C(N)=O)c(Nc2cccc(CCNC(=O)[C@H](C)N(C)C(=O)/C=C/CN(C)C)c2)nc1N(C)C(C)C` [Compound 232, (S, E)-3-((3-(2-(2-(4-(dimethylamino)-N-methylbut-2-enamido)propanamido)ethyl)phenyl)amino)-5-(isopropyl (methyl)amino)-6-methylpyrazine-2-carboxamide], the GI50 in assay [2] was in the range of 1 to 10 nM; in assay [1], 10 to 100 nM.
For `CCc1nc(Nc2cccc([C@@H](C)CNC(=O)CN(C)C(=O)/C=C/CN3CCC3)c2)c(C(N)=O)nc1CC` [Compound 508, (R, E)-3-((3-(1-(2-(4-(azetidin-1-yl)-N-methylbut-2-enamido)acetamido)propan-2-yl)phenyl)amino)-5,6-diethylpyrazine-2-carboxamide], in that order: 1 to 10 nM and 10 to 100 nM.
Taken in the same sequence, the figures for `CCc1nc(C(N)=O)c(Nc2cccc(CCNC(=O)[C@H](C)N(C)C(=O)/C=C/CNC)c2)nc1N(C)C(C)C` [Compound 307, (S,E)-6-ethyl-5-(isopropyl(methyl)amino)-3-((3-(2-(2-(N-methyl-4-(methylamino)but-2-enamido)propanamido)ethyl)phenyl)amino)pyrazine-2-carboxamide] were 1 to 10 nM and 10 to 100 nM.
Taken in the same sequence, the figures for `CCc1nc(C(N)=O)c(Nc2cccc([C@@H](C)CNC(=O)CN(C)C(=O)/C=C/CN3CCC3)c2)nc1C1CC1` [Compound 506, (R,E)-3-((3-(1-(2-(4-(azetidin-1-yl)-N-methylbut-2-enamido)acetamido)propan-2-yl)phenyl)amino)-5-cyclopropyl-6-ethylpyrazine-2-carboxamide] were 1 to 10 nM and 10 to 100 nM.
On to `CCc1nc(C(N)=O)c(Nc2cccc(CCNC(=O)CN(C)C(=O)/C=C/CN3CCC3)c2)nc1OC(C)C` [Compound 603, (E)-3-((3-(2-(2-(4-(azetidin-1-yl)-N-methylbut-2-enamido)acetamido)ethyl)phenyl)amino)-6-ethyl-5-isopropoxypyrazine-2-carboxamide], for which the GI50 was in the range of 1 to 10 nM in assay [2] and 10 to 100 nM in assay [1].
In the case of `CCOc1nc(Nc2cccc(CCNC(=O)CN(C)C(=O)/C=C/CN3CCC3)c2)c(C(N)=O)nc1CC` [Compound 602, (E)-3-((3-(2-(2-(4-(azetidin-1-yl)-N-methylbut-2-enamido)acetamido)ethyl)phenyl)amino)-5-ethoxy-6-ethylpyrazine-2-carboxamide], the GI50 in assay [2] lay in the range of 1 to 10 nM; in assay [1] it was 10 to 100 nM.
`CCc1nc(C(N)=O)c(Nc2cccc(CCNC(=O)CN(C)C(=O)/C=C/CN(C)C)c2)nc1C1CC1` [Compound 219, (E)-5-cyclopropyl-3-((3-(2-(2-(4-(dimethylamino)-N-methylbut-2-enamido)acetamido)ethyl)phenyl)amino)-6-ethylpyrazine-2-carboxamide]: the GI50 fell in the range of 1 to 10 nM in assay [2] and 10 to 100 nM in assay [1].
For `CCc1nc(C(N)=O)c(Nc2cccc([C@@H](C)CNC(=O)CN(C)C(=O)/C=C/CN(C)C)c2)nc1C1CC1` [Compound 504, (R,E)-5-cyclopropyl-3-((3-(1-(2-(4-(dimethylamino)-N-methylbut-2-enamido)acetamido)propan-2-yl)phenyl)amino)-6-ethylpyrazine-2-carboxamide], in that order: 1 to 10 nM and 10 to 100 nM.
For `CCc1nc(C(N)=O)c(Nc2cc(F)cc(CCNC(=O)CN(C)C(=O)/C=C/CN3CCC3)c2)nc1C1CC1` [Compound 516, (E)-3-((3-(2-(2-(4-(azetidin-1-yl)-N-methylbut-2-enamido)acetamido)ethyl)-5-fluorophenyl)amino)-5-cyclopropyl-6-ethylpyrazine-2-carboxamide], in that order: 1 to 10 nM and 10 to 100 nM.
Taken in the same sequence, the figures for `CCCc1nc(Nc2cccc([C@@H](C)CNC(=O)CN(C)C(=O)/C=C/CN3CCC3)c2)c(C(N)=O)nc1CC` [Compound 507, (R,E)-3-((3-(1-(2-(4-(azetidin-1-yl)-N-methylbut-2-enamido)acetamido)propan-2-yl)phenyl)amino)-6-ethyl-5-propylpyrazine-2-carboxamide] were 1 to 10 nM and 10 to 100 nM.
Take `CCc1nc(C(N)=O)c(Nc2cccc(CCNC(=O)CN(C)C(=O)/C=C/CN(C)C)c2)nc1N(C)CC` [Compound 252, (E)-3-((3-(2-(2-(4-(dimethylamino)-N-methylbut-2-enamido)acetamido)ethyl)phenyl)amino)-6-ethyl-5-(ethyl (methyl)amino) pyrazine-2-carboxamide]: the GI50 was under 1 nM in assay [2] and 1 to 10 nM in assay [1].

The values are drawn from patent US20240262795A1, “PYRAZINE COMPOUNDS AS INHIBITORS OF FLT3” (Biomea Fusion, Inc., priority 2021, published 2024).
